# Assays:
# Format in all cases: cell-based
# TMPRSS2 = TMPRSS2 mRNA expression in A549 cells (qPCR)
# ACE2 = ACE2 mRNA expression in A549 cells (qPCR)
# AR = molecular target: T1, AR (Homo sapiens, UniProt P10275, T878A); test: In vitro AR degradation activity test in LNCaP cells (ELISA, OD450); settings: LNCaP cells, 24 hours
# T1 construct: endogenous in cells; host or cells: LNCaP
# T1 sequence (P10275 1-920 T878A): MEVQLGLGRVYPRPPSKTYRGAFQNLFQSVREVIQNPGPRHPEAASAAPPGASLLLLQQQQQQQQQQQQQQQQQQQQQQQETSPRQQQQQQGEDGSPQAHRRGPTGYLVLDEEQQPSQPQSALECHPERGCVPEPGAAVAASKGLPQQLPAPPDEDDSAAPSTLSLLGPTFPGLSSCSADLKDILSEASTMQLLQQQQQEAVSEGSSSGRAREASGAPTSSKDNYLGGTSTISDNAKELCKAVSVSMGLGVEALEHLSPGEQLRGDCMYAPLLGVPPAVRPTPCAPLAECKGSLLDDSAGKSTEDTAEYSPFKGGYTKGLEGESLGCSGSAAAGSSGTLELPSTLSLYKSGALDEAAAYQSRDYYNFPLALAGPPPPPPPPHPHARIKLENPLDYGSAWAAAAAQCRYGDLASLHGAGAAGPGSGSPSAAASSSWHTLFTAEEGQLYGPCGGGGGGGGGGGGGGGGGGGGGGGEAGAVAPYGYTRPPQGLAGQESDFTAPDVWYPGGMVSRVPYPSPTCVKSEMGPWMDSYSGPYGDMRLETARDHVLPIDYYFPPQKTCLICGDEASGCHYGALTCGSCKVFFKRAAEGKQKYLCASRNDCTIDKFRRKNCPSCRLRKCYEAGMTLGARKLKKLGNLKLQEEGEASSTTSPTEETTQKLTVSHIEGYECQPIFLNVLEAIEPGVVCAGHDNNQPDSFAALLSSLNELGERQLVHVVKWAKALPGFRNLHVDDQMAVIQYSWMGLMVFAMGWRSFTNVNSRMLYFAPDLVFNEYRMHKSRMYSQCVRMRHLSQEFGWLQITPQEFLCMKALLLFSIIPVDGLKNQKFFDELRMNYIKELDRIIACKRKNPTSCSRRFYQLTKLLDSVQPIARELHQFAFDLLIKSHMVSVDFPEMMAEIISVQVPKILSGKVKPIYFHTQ
# Method: The cells were then digested with trypsin and counted using an automated cell counter. The cell suspension was diluted to the desired density in growth medium. The cell suspension was then seeded into 96-well plates at 100 μL per well, and the plates were incubated at 37° C. with 5% CO2 for 24 hours. The compounds were then diluted 200-fold to the final concentration with DMSO or 3-fold to the final concentration with culture medium. 50 μL of compound solution was transferred to the 96-well plate and incubated at 37° C. for 24 hours. After 24 hours of incubation, the cell plate was washed 3 times with DPBS, 100 μL of 1× lysis buffer was added to each well, and placed on ice for 30 minutes. The supernatant was collected. The protein in the cell lysate samples was quantified and then diluted to the required concentration. 100 μL of cell lysate sample was added to the appropriate wells, sealed with tape and pressed firmly on top of the wells, and the plate was incubated at 37° C. for 2 hours. The plate contents were then discarded, and washed 4 times with 1× wash buffer, 200 μL per well each time. 100 μL of reconstituted detection antibody was then added, the plate was sealed with tape and incubated at 37° C. for 1 hour. The aspiration/wash step was then repeated, 100 μL of reconstituted HRP-Linked secondary antibody was added to each well, the plate was sealed with tape and incubated at 37° C. for 30 minutes. The aspiration/wash step was then repeated, 100 μL of substrate solution was added to each well and incubated at 37° C. for 10 minutes, and finally 100 μL of stop solution was added to each well. The plate was gently tapped to ensure thorough mixing, and the OD450 nm was recorded.
# Degradation rate (%)=(OD450_max−OD450_sample)/(OD450_max−OD450_min)×100,plotted using GraphPad Prism 5 software, and IC50 is calculated using SPSS software.
# [1] = 10 μM, 1 nM DHT, 48 h, Blank = 1
smiles,measurement,setting,value
C[C@]12CC[C@H](NC(=O)c3ccnnc3)CC1=CCC1C2CC[C@]2(C)C(n3cnc([N+](=O)[O-])c3)=CCC12 (some centres unmarked) [Compound 21],"Expression of TMPRSS2 protein, in words",TMPRSS2,significantly downregulate
same,TMPRSS2 mRNA level,TMPRSS2; [1],0.196
same,"Expression of ACE2 protein, in words",ACE2,significantly downregulate
same,ACE2 mRNA level,ACE2; [1],0.234
same,DC50,AR,3.31 µM
